Reference: patent publication US20160030416A1, “METHODS OF TREATING B2-BRADYKININ RECEPTOR MEDIATED ANGIOEDEMA” (SHIRE HUMAN GENETIC THERAPIES, INC., priority 2013, published 2016)

What was measured:
plasma extravasation = assay: Plasma extravasation (Evans blue in bladder), IV bolus, wild-type mice; format: in vivo, wild-type (WT) C57/BL6 male mice; conditions: for Evans blue (EB) in the bladder: controls 0.7927
Description: In vivo experiments in both wild-type (WT) C57BL/6J mice and C1-inhibited knock out (C1 INH KO) mice measured pharmacodynamic efficacy by the ability of CFMQ to block plasma extravasation, which is causative to edema, the most important symptom requiring treatment in HAE subjects. This plasma extravasation model has been used extensively in the literature to investigate the efficacy of bradykinin receptor antagonists. (Han et al., “Increased vascular permeability in C1 inhibitor-deficient mice mediated by the bradykinin type 2 receptor,” J Clin Invest, 2002 April; 109(8): 1057-1063.)
The uptake and effective blocking of plasma extravasation of CFMQ was examined following IV (intravenous) bolus administration in wild-type (WT) C57/BL6 male mice (n=4/dose group). Mice received CFMQ (HGT3711) (2 μL/g) at 1.0 μg/kg, 100 μg/kg, and/or 6 mg/kg. Following CFMQ administration and prior to the terminal time point, mice received an IV injection of Evans blue (EB) dye (30 mg/kg) and were sacrificed. The bladder was removed, dried and weighed and extracted in formamide (1.0 mL). EB concentration in the formamide extract was determined spectrophotometrically and EB content was calculated as μg EB per milligram of tissue weight. Efficacy was determined by inhibiting the accumulation of EB in the bladder.
CFMQ doses of 0.001, 0.05, 0.1, 0.25, 0.5, 1.0, and or 3.0 mg/kg were administered as IV bolus injections to WT mice (n=8/dose group).

V1a (h) = target: T1, V1a (h) (Homo sapiens, UniProt P37288); assay: Off-target receptor binding: V1a
T1 construct: expressed in transfected cells; host or cells: CHO or HEK 293 (not assigned per receptor)
Experimental: (§1) To determine the affinity to the B2-bradykinin receptor, CFMQ was compared to a diverse set of receptors and reference agents in an in vitro assay using cells from rat heart, urinary bladder, cerebral cortex, as well as human recombinant cells (CHO and HEK 293) and other cell lines. Each assay included a ligand at a specific concentration (concentration ranging from 0.007-10 nM), in addition to a non-specific ligand (concentration ranging from […]) for incubation periods ranging from 15 minutes to 6 hours at 4°-37° C. The specific binding to the receptors was defined as the difference between the total binding and the nonspecific binding, determined in the presence of an excess of unlabeled CFMQ. The concentration causing a half-maximal inhibition of control specific binding (IC50 values) and inhibition constants (Ki) were determined, and each reference compound was within the accepted limits of the historic average (±0.5 log units).

[1] = system: BK-induced human umbilical vein contractions; assay: cells; conditions: Homo sapiens, 0.5 h; 30 minute incubation, BK-induced contractions; read-out: EC50, umbilical vein assay
Experimental: The inhibition effect of CFMQ on bradykinin induced […] was examined in an ex vivo functional assay of human umbilical vein contraction, which is considered a gold standard for bradykinin activity measurements. […] Firazyr®). Following a 30 minute incubation, BK-induced vein contractions were initiated in a cumulative manner (final concentration of 10 μM), followed by maximal calibration contraction induction by 10 μM serotonin. The tension increase for each dose response was calculated in relation to the (maximal) response towards serotonin, graphed as a dose-response curve and used to calculate an effective concentration at 50% (EC50) value (FIG. 6)

[2] = Plasma kinetics, intravenous, beagle dogs; format: in vivo, female beagle dogs; conditions: IV 1 mg/kg
Experimental: CFMQ (HGT3711) was administered to fasted female beagle dogs by a single intravenous injection at 1.0 mg/kg, formulated in 100% PEG200 (Table 10). Blood samples were taken via jugular vein puncture prior to administration and at 0.083 (5 min), 0.25 (15 min), 0.50 (30 min), 1, 4, 8 and 24 hours post dose. Plasma concentrations of CFMQ (HGT3711) were determined by LC-MS/MS and concentrations below the limit of quantitation (1.0 ng/mL) were assigned a value of zero for pharmacokinetic analysis. Nominal dosing concentrations were used in all calculations.

diverse set of receptors = assay: Receptor binding and selectivity panel
Experimental: as §1

[3] = target: T2, human B2-bradykinin receptor (Homo sapiens, UniProt P30411); assay: [3H]bradykinin competition binding assay in HEK 293 cells; design: expressed in transfected cells; conditions: 2 nM [3H]bradykinin, 90-minute incubation
T2 sequence (P30411 1-391): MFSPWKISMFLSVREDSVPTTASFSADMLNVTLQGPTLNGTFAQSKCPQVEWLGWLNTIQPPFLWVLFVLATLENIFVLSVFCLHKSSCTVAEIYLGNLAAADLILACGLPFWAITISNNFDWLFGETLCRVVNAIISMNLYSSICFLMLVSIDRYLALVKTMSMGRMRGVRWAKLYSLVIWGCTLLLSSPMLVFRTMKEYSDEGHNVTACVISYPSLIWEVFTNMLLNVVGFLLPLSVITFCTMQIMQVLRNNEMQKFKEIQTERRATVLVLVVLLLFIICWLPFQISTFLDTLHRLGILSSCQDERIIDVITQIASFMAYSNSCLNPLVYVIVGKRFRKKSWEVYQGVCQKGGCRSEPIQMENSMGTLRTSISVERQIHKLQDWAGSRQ
Experimental: For determination of non-specific binding 1.25 μL of a 10 mM bradykinin (BK) solution was added to 248.8 μL incubation buffer (containing 2 nM [^3H]BK). […] Appropriate controls were prepared in the same method.
Human embryonic kidney (HEK) 293 cells stably express recombinant human B2-bradykinin receptors (10 pmol/mg protein) and were added to 96-well culture-trays and cultivated for 1-3 days, followed by incubation with 100 μL of each of the incubation buffers containing [^3H]BK. After a 90-minute incubation period and washing (4×PBS (phosphate buffered saline)) supernatants of the cell mixtures were transferred to scintillation vials and assayed for [^3H]BK in a beta-counter. Results of counts per minute (cpm) for non-specific binding were subtracted from the total cpm and were used for curve fit and IC50 calculation.

[4] = female, beagle, dog, plasma, extrapolated to t = 0

T1 sequence (P37288 whole entry): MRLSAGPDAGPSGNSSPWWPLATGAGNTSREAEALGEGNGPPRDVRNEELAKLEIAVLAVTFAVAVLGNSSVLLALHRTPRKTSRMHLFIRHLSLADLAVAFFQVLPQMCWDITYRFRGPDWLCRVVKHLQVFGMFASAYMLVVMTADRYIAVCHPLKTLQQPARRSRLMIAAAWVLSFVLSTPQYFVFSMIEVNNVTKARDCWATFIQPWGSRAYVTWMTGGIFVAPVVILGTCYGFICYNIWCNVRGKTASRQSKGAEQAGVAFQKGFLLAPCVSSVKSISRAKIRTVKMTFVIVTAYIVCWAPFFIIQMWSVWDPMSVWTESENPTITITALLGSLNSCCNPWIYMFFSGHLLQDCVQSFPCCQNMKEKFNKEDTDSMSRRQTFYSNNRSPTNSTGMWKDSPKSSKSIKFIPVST

With `Cc1cc(Cl)c(COc2cccc3c(-n4cc(F)cn4)cc(C)nc23)c(Cn2cccc(C#N)c2=O)n1` [CFMQ, 1-((4-Chloro-3-(((4-(4-fluoro-1H-pyrazol-1-yl)-2-methylquinolin-8-yl)oxy)methyl)-6-methylpyridin-2-yl)methyl)-2-oxo-1,2-dihydropyridine-3-carbonitrile] the “Evans blue (EB) in the bladder” value (plasma extravasation; IV bolus 1.0 μg/kg) was 0.7602 EB mg/kg tissue, the “Evans blue (EB) in the bladder” value (plasma extravasation; IV bolus 6 mg/kg) was 0.0701 EB mg/kg tissue and the “inhibition of plasma extravasation vs vehicle” value (plasma extravasation; IV bolus 0.5, 1.0, and or 3.0 mg/kg, n=8) was “significant inhibition of plasma extravasation”. For the same compound, the “inhibition of extravasation” value (plasma extravasation; IV bolus 1.0 and or 100 μg/kg) was “did not inhibit extravasation”, the ED50 (plasma extravasation; Mus musculus, intravenous, WT model, read-out: effective dose (ED50), plasma extravasation) was 0.46 mg/kg and the “block of plasma extravasation” value (plasma extravasation; intravenous, high doses (500 μg/kg)) was “blocked plasma extravasation completely”. It also gave an IC50 (V1a (h)) of 1500 nM, a Ki (V1a (h)) of 9.4 µM and a nH (V1a (h)) of 1.3. The inhibition at 10 µM (V1a (h); CFMQ at 10 μM) was 51%, the EC50 [1] was 7.3 nM and the “clearance as % of liver blood flow in dog (1.85 L/hr/kg)” value [2] was “approximately 14%”. The AUC(0-inf) ([2]; female, beagle, dog, plasma) was 5270 ng·h/mL, the AUC(0-t) ([2]; female, beagle, dog, plasma) was 5160 ng·h/mL and the clearance ([2]; female, beagle, dog, plasma) was 4.17 mL/min/kg. For the same compound, the half-life ([2]; female, beagle, dog, plasma) was 161 min, the concentration at 0 hr ([2]; female, beagle, dog, plasma, 0 hr, read-out: Average Concentration of HGT3711) was 0 ng/mL and the concentration at 0.083 hr ([2]; female, beagle, dog, plasma, 0.083 hr, read-out: Average Concentration of HGT3711) was 1840 ng/mL. For the same compound, the concentration at 0.25 hr ([2]; female, beagle, dog, plasma, 0.25 hr, read-out: Average Concentration of HGT3711) was 1320 ng/mL, the concentration at 0.5 hr ([2]; female, beagle, dog, plasma, 0.50 hr, read-out: Average Concentration of HGT3711) was 1070 ng/mL and the concentration at 1 hr ([2]; female, beagle, dog, plasma, 1.0 hr, read-out: Average Concentration of HGT3711) was 717 ng/mL. It also gave a concentration at 4 hr ([2]; female, beagle, dog, plasma, 4.0 hr, read-out: Average Concentration of HGT3711) of 377 ng/mL, a concentration at 8 hr ([2]; female, beagle, dog, plasma, 8.0 hr, read-out: Average Concentration of HGT3711) of 180 ng/mL and a C0 [2, 4] of 2180 ng/mL. For the same compound, the Tmax [2, 4] was 0 h, the Vd ([2]; female, beagle, dog, plasma, read-out: Vss) was 0.75 L/kg and the “binding selectivity for B2-bradykinin receptor” value (diverse set of receptors) was “selective”. For the same compound, the IC50 [3] was 3.3 nM.
